The results in this text go back to US9243281B2, “Neuroprotective chemicals and methods for identifying and using same” (Board of Regents of The University of Texas System, priority 2013, dated 2016).

The test system of assay [1] is hippocampal neurogenesis (Dentate Gyrus). The experiment in a line: in vivo neurogenesis assay (BrdU+ cells in dentate gyrus). The note with it: living mice; vehicle (DMSO) 7.3. Set-up: species or system mice. The text has this: The screen was simple in concept. With help from chemists in the Department of Biochemistry at UTSWMC, we selected 1,000 druglike chemicals from the 250,000 compounds in our high throughput screening center. The compounds were selected to preserve representative chemical diversity of the entire library. They were further selected to enhance the representation of chiral molecules, and to avoid untoward chemical properties such as reactive moieties. The 1,000 molecules were randomly pooled into groups of ten, and each pool was administered directly into the left ventricle of two adult mice. Intracranial delivery was facilitated by stereotactic positioning of a canula fed directly by an Alzet mini-pump containing the mixture of ten chemicals. The drug mixture was administered over a week-long period at concentrations anticipated to deliver mid-nanomolar levels of the ten test compounds. Daily injections of the thymidine analog, bromodeoxyuridine (BrdU), were coadministered in order to monitor the formation of new hippocampal nerve cells. Following compound administration, animals were sacrificed such that brain tissue could be recovered, sectioned and stained with antibodies to BrdU. […]

The next assay has as its target T1, p70 (NAMPT) (Homo sapiens, UniProt P43490).
T1 construct: endogenous in cells; host or cells: H2122 lung cancer cells
The experiment in a line: binding competition for photo-crosslinking of P7C3-S326 to p70 in H2122 cells. The note with it: 0.3 μM P7C3-S326 plus 5 μM competitor, p70 band intensity, P7C3-S326 alone compared with plus competitor, vehicle 1.0. The procedure: Cultured cells were co-exposed to P7C3-S326 (0.3 uM) and the individual P7C3 variants (5 uM), exposed to UV light, lysed, clicked to a fluorescent dye and run on SDS gels (FIG. 11).
P7C3-S326 was diluted to 0.3 μM in culture medium to treat H2122 cells. After incubation at 37° C. for 2 hours, H2122 cells were irradiated for 15 minutes under 306 nm ultraviolet light in a Stratalinker 2400 (Stratagene). Cells were then harvested by dissolving in 1% SDS lysis buffer 50 mM HEPES, pH 8.0, 2 mM MgCl2, 10 mM KCl, 1% SDS, 50 units/ml of Benzonase (Sigma), supplemented with Sigmafast protease inhibitor (Sigma).
The reaction was incubated at room temperature with constant agitation at 1,000 rpm on a thermomixer (Eppendorf) for 1 hour. Samples were then mixed with SDS sample loading buffer and loaded on an 8% SDS-PAGE gel, separated, and imaged using a Typhoon imager (filter settings: excitation 533 nm, emission 555 nm, and high sensitivity).
H2122 cells were incubated with the P7C3-S326 (0.3 μM) in the absence or presence of P7C3 analogs for 2 hours following by UV crosslinking. […] The samples were run on SDS-PAGE gels scanned using a Typhoon Imager. The p70 band intensity was analyzed and quantified by Image J, and the relative intensity in each assay was normalized to that of the DMSO control.

T1 sequence (P43490 whole entry): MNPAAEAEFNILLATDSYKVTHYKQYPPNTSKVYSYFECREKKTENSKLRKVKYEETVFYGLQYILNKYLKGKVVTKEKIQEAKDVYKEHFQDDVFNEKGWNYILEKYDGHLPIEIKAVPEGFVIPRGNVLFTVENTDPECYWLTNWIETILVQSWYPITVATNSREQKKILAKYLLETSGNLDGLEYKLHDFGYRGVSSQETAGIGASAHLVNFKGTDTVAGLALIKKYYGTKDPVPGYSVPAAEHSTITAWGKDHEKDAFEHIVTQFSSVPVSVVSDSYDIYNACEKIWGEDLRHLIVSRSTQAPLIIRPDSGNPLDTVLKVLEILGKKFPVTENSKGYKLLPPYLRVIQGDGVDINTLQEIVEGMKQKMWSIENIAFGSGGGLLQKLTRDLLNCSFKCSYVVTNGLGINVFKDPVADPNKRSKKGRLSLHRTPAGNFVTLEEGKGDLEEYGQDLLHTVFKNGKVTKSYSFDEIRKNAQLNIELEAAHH

For `OC(CSc1ccccc1)CN1c2ccccc2CCc2ccccc21` (centres unmarked) [S134], in assay [1], the “Neurogenesis # BrdU+ Cells (X10E06)/mm3 Dentate Gyrus” value (“Neurogenesis # BrdU+ Cells” for short) is given as 9.7 (X10E06)/mm3. The Binding competition on p70 (NAMPT) amounted to 1.9.
The corresponding values for `COc1ccc2[nH]cc(CCNC(C)=O)c2c1` [S193] are 7.8 (X10E06)/mm3 and 1.1.
As to `OC(CNc1ncccn1)Cn1c2ccc(Br)cc2c2cc(Br)ccc21` (centres unmarked) [S8], in assay [1], the “Neurogenesis # BrdU+ Cells” value is reported as 7.8 (X10E06)/mm3. Besides, the Binding competition on p70 (NAMPT) is recorded as 4.7.
The corresponding values for `OC(Cn1ccc2ccccc21)Cn1c2ccc(Br)cc2c2cc(Br)ccc21` (centres unmarked) [S22] are 6.7 (X10E06)/mm3 and 2.7.
The corresponding values for `CNCCCN1c2ccccc2CCc2ccccc21.Cl` [S87, Desipramine, reference compound] are 14.7 (X10E06)/mm3 and 1.2.
The corresponding values for `FC(COc1ccccc1)Cn1c2ccc(Br)cc2c2cc(Br)ccc21` (centres unmarked) [S42] are 11.7 (X10E06)/mm3 and 1.7.
Take `CC(C)(C)OC(=O)NCCCCCOc1ccc(S(=O)(=O)CC(O)Cn2c3ccc(Br)cc3c3cc(Br)ccc32)cc1` (centres unmarked) [S141]: in assay [1], the “Neurogenesis # BrdU+ Cells” value was 11.3 (X10E06)/mm3. For the same compound, at p70 (NAMPT), the Binding competition was 2.7.
The corresponding values for `CC(=O)NCC(F)Cn1c2ccc(Br)cc2c2cc(Br)ccc21` (centres unmarked) [S218] are 9.5 (X10E06)/mm3 and 3.2.
The corresponding values for `OC(COc1ccccc1)Cn1c2c(c3cc(Br)ccc31)CN(C1CC1)CC2` (centres unmarked) [S106] are 10.9 (X10E06)/mm3 and 1.4.
The corresponding values for `OC(COc1ccccn1)Cn1c2ccc(Br)cc2c2cc(Br)ccc21` (centres unmarked) [S147] are 13.3 (X10E06)/mm3 and 3.4.
For `[O-][n+]1ccc2c(c1)c1cc(Br)ccc1n2CC(O)COc1ccccc1` (centres unmarked) [S195], the “Neurogenesis # BrdU+ Cells” value in assay [1] is listed as 9.0 (X10E06)/mm3. For the same compound, the Binding competition on p70 (NAMPT) worked out at 1.1.
As to `CC(C(=O)O)n1c2ccc(Br)cc2c2cc(Br)ccc21` (centres unmarked) [S211], in assay [1], the “Neurogenesis # BrdU+ Cells” value is 11.5 (X10E06)/mm3. Further, at p70 (NAMPT), the Binding competition turned out to be 1.2.
The corresponding values for `N#Cc1ccc2c(c1)c1ccccc1n2CC(O)COc1ccccc1` (centres unmarked) [S138] are 10.4 (X10E06)/mm3 and 6.5.
The corresponding values for `N#Cc1ccc2c(c1)c1cc(C#N)ccc1n2CC(O)COc1ccccc1` (centres unmarked) [S111] are 12.3 (X10E06)/mm3 and 4.1.
Consider `Cc1ccc2c(c1)c1c(n2CC(O)CNc2ccccc2)CCN(C)C1` (centres unmarked) [S46], for which the “Neurogenesis # BrdU+ Cells” value in assay [1] is recorded as 9.2 (X10E06)/mm3. Further, the Binding competition at p70 (NAMPT) is listed as 1.9.
The corresponding values for `OCc1cc2c(cn1)[nH]c1ccc(Br)cc12` [S204] are 14.2 (X10E06)/mm3 and 2.3.
As for `NC(Cc1c[nH]c2ccc(Br)cc12)C(=O)O` (centres unmarked) [S207], the “Neurogenesis # BrdU+ Cells” value in assay [1] is given as 16.2 (X10E06)/mm3. Moreover, on p70 (NAMPT), the Binding competition was found to be 1.1.
In the case of `[N-]=[N+]=Nc1ccc(NCC(O)Cn2c3ccc(Br)cc3c3cc(Br)ccc32)cc1` (centres unmarked) [S48], in assay [1], the “Neurogenesis # BrdU+ Cells” value is listed as 14.5 (X10E06)/mm3. Moreover, the Binding competition on p70 (NAMPT) worked out at 3.4.
The corresponding values for `N#Cc1ccc(N(CC(O)COc2ccccc2)c2ccc(Br)cc2)nc1` (centres unmarked) [S136] are 6.5 (X10E06)/mm3 and 5.7.
For `OC(COc1ccccc1)Cn1c2ccccc2c2cc(Br)ccc21` (centres unmarked) [S150], the “Neurogenesis # BrdU+ Cells” value in assay [1] is given as 8.4 (X10E06)/mm3. The Binding competition on p70 (NAMPT) is 4.1.
The corresponding values for `OC(CN1c2ccccc2CCc2ccccc21)Cn1ccc2ccccc21` (centres unmarked) [S132] are 11.4 (X10E06)/mm3 and 1.3.
The corresponding values for `O=c1ccccn1CC(O)Cn1c2ccc(Br)cc2c2cc(Br)ccc21` (centres unmarked) [S137] are 12.2 (X10E06)/mm3 and 4.5.
Consider `Oc1cccc(SCC(O)CC2c3ccc(Br)cc3-c3cc(Br)ccc32)c1` (centres unmarked) [S91], for which, in assay [1], the “Neurogenesis # BrdU+ Cells” value was 8.2 (X10E06)/mm3. The Binding competition on p70 (NAMPT) amounted to 3.4.
The corresponding values for `CNCCC=C1c2ccccc2CCc2ccccc21.Cl` [S89, Nortriptyline, reference compound] are 8.7 (X10E06)/mm3 and 1.3.
The corresponding values for `CNCC(O)CN1c2ccccc2CCc2ccccc21` (centres unmarked) [S143] are 7.3 (X10E06)/mm3 and 1.3.
The corresponding values for `N=c1ccccn1CC(O)Cn1c2ccc(Br)cc2c2cc(Br)ccc21` (centres unmarked) [S5] are 12.2 (X10E06)/mm3 and 1.4.
`N#Cc1ccc2c(c1)c1cc(Br)ccc1n2CC(=O)O` [S224]: the “Neurogenesis # BrdU+ Cells” value in assay [1] is given as 10.1 (X10E06)/mm3. Also, the Binding competition on p70 (NAMPT) turned out to be 1.3.
The corresponding values for `COc1cccc(SCC(F)Cn2c3ccc(Br)cc3c3cc(Br)ccc32)c1` (centres unmarked) [S79] are 13.7 (X10E06)/mm3 and 1.0.
The corresponding values for `Nc1ccc(SCC(O)Cn2c3ccc(Br)cc3c3cc(Br)ccc32)cc1` (centres unmarked) [S96] are 8.7 (X10E06)/mm3 and 3.9.
The corresponding values for `O=C(Cn1c2ccc(Br)cc2c2cc(Br)ccc21)NO` [S231] are 13.1 (X10E06)/mm3 and 1.7.
Regarding `COc1cccc(N(/C=C/Cn2c3ccc(Br)cc3c3cc(Br)ccc32)S(=O)(=O)C(F)(F)F)c1` [S179], the “Neurogenesis # BrdU+ Cells” value in assay [1] is listed as 17.3 (X10E06)/mm3. The Binding competition at p70 (NAMPT) turned out to be 0.9.
The corresponding values for `OC(CNc1ccccc1)Cn1c2ccc(C3CC3)cc2c2cc(C3CC3)ccc21` (centres unmarked) [S62] are 11.8 (X10E06)/mm3 and 1.2.
As to `CNC(=O)Cn1c2ccc(Br)cc2c2cc(Br)ccc21` [S214], the “Neurogenesis # BrdU+ Cells” value in assay [1] is reported as 9.9 (X10E06)/mm3. Besides, on p70 (NAMPT), the Binding competition was found to be 1.7.
The corresponding values for `O[C@H](COc1ccccc1)Cn1c2ccc(Br)cc2c2cc(Br)ccc21` [S41] are 15.3 (X10E06)/mm3 and 3.4.
As to `NC(=O)c1ccc2[nH]c3ccc(Br)cc3c2c1` [S223], the “Neurogenesis # BrdU+ Cells” value in assay [1] is 7.9 (X10E06)/mm3. The Binding competition on p70 (NAMPT) was found to be 3.0.
The corresponding values for `COc1cccc(NCC(O)Cn2c3ccc(C)cc3c3cc(Br)ccc32)c1` (centres unmarked) [S14] are 13.5 (X10E06)/mm3 and 4.5.
The corresponding values for `O=C(O)CN1c2ccccc2CCc2ccccc21` [S210] are 10.7 (X10E06)/mm3 and 1.1.
The corresponding values for `[O-][n+]1cccc2c1c1cc(Br)ccc1n2CC(O)COc1ccccc1` (centres unmarked) [S198] are 11.0 (X10E06)/mm3 and 5.1.
With `CCOC(=O)c1ncc2c(n1)c1ccccc1n2S(=O)(=O)c1ccc(C)cc1` [S246], the “Neurogenesis # BrdU+ Cells” value in assay [1] is listed as 14.5 (X10E06)/mm3. In addition, the Binding competition on p70 (NAMPT) was found to be 1.3.
The corresponding values for `N#Cc1ccc2c(c1)c1cc(C#N)ccc1n2CC(O)CSc1ccccc1` (centres unmarked) [S110] are 10.5 (X10E06)/mm3 and 6.2.
The corresponding values for `CN(C)CC(F)CN1c2ccccc2CCc2ccccc21` (centres unmarked) [S148, reference compound] are 11.3 (X10E06)/mm3 and 1.3.
The corresponding values for `COc1cccc(NCC(O)Cn2c3ccc(Cl)cc3c3cc(Cl)ccc32)c1` (centres unmarked) [S15] are 7.6 (X10E06)/mm3 and 5.3.
Consider `N#Cc1ccc2[nH]c3ccc(Br)cc3c2c1` [S216], for which the “Neurogenesis # BrdU+ Cells” value in assay [1] is recorded as 13.0 (X10E06)/mm3. Moreover, the Binding competition at p70 (NAMPT) is recorded as 4.4.
